Results published in US20250230193A1, “CYCLIC COMPOUND HAVING SELECTIVE KRAS INHIBITORY EFFECT ON HRAS AND NRAS” (CHUGAI SEIYAKU KABUSHIKI KAISHA, priority 2022, published 2025).

How the values were obtained:
[1] = biological target: GDP-bound NRAS wild-type protein (Homo sapiens, UniProt P01111); experiment: Binding to NRAS by surface plasmon resonance (SPR), Single Cycle Kinetics; details: KD ratio, GDP-bound NRAS wild-type vs GDP-bound KRAS wild-type, SPR
[2] = biological target: GDP-bound HRAS wild-type protein (Homo sapiens, UniProt P01112); experiment: Binding to HRAS by surface plasmon resonance (SPR), Single Cycle Kinetics; details: KD ratio, GDP-bound HRAS wild-type vs GDP-bound KRAS wild-type, SPR
GDP-bound HRAS wild-type protein, sequence (P01112 whole entry): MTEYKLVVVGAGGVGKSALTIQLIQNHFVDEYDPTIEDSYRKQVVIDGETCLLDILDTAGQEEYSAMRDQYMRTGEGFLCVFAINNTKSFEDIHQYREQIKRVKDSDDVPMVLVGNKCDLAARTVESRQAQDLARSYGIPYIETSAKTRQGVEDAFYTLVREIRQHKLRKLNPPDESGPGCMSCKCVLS

GDP-bound NRAS wild-type protein, sequence (P01111 whole entry): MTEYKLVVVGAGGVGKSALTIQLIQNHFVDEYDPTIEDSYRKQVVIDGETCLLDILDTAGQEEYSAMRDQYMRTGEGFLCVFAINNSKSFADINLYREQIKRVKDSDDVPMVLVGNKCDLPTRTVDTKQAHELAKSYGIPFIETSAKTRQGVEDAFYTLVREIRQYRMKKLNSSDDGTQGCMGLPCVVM

| SMILES | NRAS/KRAS (ratio of KD value with respect to NRAS to KD value with respect to KRAS) [1] | HRAS/KRAS (ratio of KD value with respect to HRAS to KD value with respect to KRAS) [2] |
| --- | --- | --- |
| CC[C@H](C)[C@@H]1NC(=O)[C@H](CC)N(C)C(=O)C[C@@H](C(=O)N(C)C)N(C)C(=O)[C@H](C2CCCC2)N(C)C(=O)C2(CCC2)NC(=O)[C@@H]2C[C@H](F)CN2C(=O)[C@H](CCc2cc(F)c(C(F)(F)F)c(F)c2)NC(=O)CN(C)C(=O)[C@H](Cc2ccc(C(F)(F)F)cc2)N2CC/C=C\C[C@@H](C2=O)N(C)C(=O)CN(C)C1=O [PP1132] | A (a compound having 10 or more and less than 20 is denoted as A) | B (a compound having 3 or more and less than 10 is denoted as B) |
| CC[C@H](C)[C@@H]1NC(=O)[C@H](CC)N(C)C(=O)C[C@@H](C(=O)N(C)C)N(C)C(=O)[C@H](C2CCCC2)N(C)C(=O)C2(CCC2)NC(=O)[C@@H]2C[C@@H](C(F)(F)F)CN2C(=O)[C@H](CCc2cc(F)c(C(F)(F)F)c(F)c2)NC(=O)CN(C)C(=O)[C@H](Cc2ccc(C(F)(F)F)cc2)N2CC/C=C\C[C@@H](C2=O)N(C)C(=O)CN(C)C1=O [PP1133] | A (a compound having 10 or more and less than 20 is denoted as A) | A (a compound having 10 or more and less than 20 is denoted as A) |
| CC[C@H](C)[C@@H]1NC(=O)[C@H](CC)N(C)C(=O)C[C@@H](C(=O)N(C)C)N(C)C(=O)[C@H](C2CCCC2)N(C)C(=O)C2(CCC2)NC(=O)[C@@H]2C[C@H](C)CN2C(=O)[C@H](CCc2cc(F)c(C(F)(F)F)c(F)c2)NC(=O)CN(C)C(=O)[C@H](Cc2ccc(C(F)(F)F)cc2)N2CC/C=C\C[C@@H](C2=O)N(C)C(=O)CN(C)C1=O [PP1134] | A (a compound having 10 or more and less than 20 is denoted as A) | B (a compound having 3 or more and less than 10 is denoted as B) |
| CC[C@H](C)[C@@H]1NC(=O)[C@H](CC)N(C)C(=O)C[C@@H](C(=O)N(C)C)N(C)C(=O)[C@H](C2CCCC2)N(C)C(=O)C2(CCC2)NC(=O)[C@@H]2CCCN2C(=O)[C@H](CCc2cc(F)c(C(F)(F)F)c(F)c2)NC(=O)CN(C)C(=O)[C@H](Cc2ccc(C(F)(F)F)cc2)N2CC/C=C\C[C@@H](C2=O)N(C)C(=O)CN(C)C1=O [PP1135] | A (a compound having 10 or more and less than 20 is denoted as A) | A (a compound having 10 or more and less than 20 is denoted as A) |
| CC[C@H](C)[C@@H]1NC(=O)[C@H](CC)N(C)C(=O)C[C@@H](C(=O)N(C)C)N(C)C(=O)[C@H](C2CCCC2)N(C)C(=O)C2(CCC2)NC(=O)[C@@H]2CCCCN2C(=O)[C@H](CCc2cc(F)c(C(F)(F)F)c(F)c2)NC(=O)CN(C)C(=O)[C@H](Cc2ccc(C(F)(F)F)cc2)N2CC/C=C\C[C@@H](C2=O)N(C)C(=O)CN(C)C1=O [PP1136] | A (a compound having 10 or more and less than 20 is denoted as A) | A (a compound having 10 or more and less than 20 is denoted as A) |
| CC[C@H](C)[C@@H]1NC(=O)[C@H](CC)N(C)C(=O)C[C@@H](C(=O)N(C)C)N(C)C(=O)[C@H](C2CCCC2)N(C)C(=O)C2(CCC2)NC(=O)[C@@H]2CSCCN2C(=O)[C@H](CCc2cc(F)c(C(F)(F)F)c(F)c2)NC(=O)CN(C)C(=O)[C@H](Cc2ccc(C(F)(F)F)cc2)N2CC/C=C\C[C@@H](C2=O)N(C)C(=O)CN(C)C1=O [PP1137] | AA (a compound having 20 or more is denoted as AA) | A (a compound having 10 or more and less than 20 is denoted as A) |
| CC[C@H](C)[C@@H]1NC(=O)[C@H](CC)N(C)C(=O)C[C@@H](C(=O)N(C)C)N(C)C(=O)[C@H](C2CCCC2)N(C)C(=O)C2(CCC2)NC(=O)[C@@H]2COCCN2C(=O)[C@H](CCc2cc(F)c(C(F)(F)F)c(F)c2)NC(=O)CN(C)C(=O)[C@H](Cc2ccc(C(F)(F)F)cc2)N2CC/C=C\C[C@@H](C2=O)N(C)C(=O)CN(C)C1=O [PP1138] | A (a compound having 10 or more and less than 20 is denoted as A) | A (a compound having 10 or more and less than 20 is denoted as A) |
| CC[C@H](C)[C@@H]1NC(=O)[C@H](CC)N(C)C(=O)C[C@@H](C(=O)N(C)C)N(C)C(=O)[C@H](C2CCCC2)N(C)C(=O)C2(CCC2)NC(=O)[C@@H]2CCN2C(=O)[C@H](CCc2cc(F)c(C(F)(F)F)c(F)c2)NC(=O)CN(C)C(=O)[C@H](Cc2ccc(C(F)(F)F)cc2)N2CC/C=C\C[C@@H](C2=O)N(C)C(=O)CN(C)C1=O [PP1139] | A (a compound having 10 or more and less than 20 is denoted as A) | A (a compound having 10 or more and less than 20 is denoted as A) |
| CC[C@H](C)[C@@H]1NC(=O)[C@H](CC)N(C)C(=O)C[C@@H](C(=O)N(C)C)N(C)C(=O)[C@H](C2CCCC2)N(C)C(=O)C2(CCC2)NC(=O)[C@H](C)NC(=O)[C@H](CCc2cc(F)c(C(F)(F)F)c(F)c2)NC(=O)CN(C)C(=O)[C@H](Cc2ccc(C(F)(F)F)cc2)N2CC/C=C\C[C@@H](C2=O)N(C)C(=O)CN(C)C1=O [PP1140] | A (a compound having 10 or more and less than 20 is denoted as A) | A (a compound having 10 or more and less than 20 is denoted as A) |
| CCCN1CC(=O)NC2(CCC2)C(=O)N(C)[C@@H](C2CCCC2)C(=O)N(C)[C@H](C(=O)N(C)C)CC(=O)N(C)[C@@H](CC)C(=O)N[C@@H]([C@@H](C)CC)C(=O)N(C)CC(=O)N(C)[C@H]2C/C=C\CCN(C2=O)[C@@H](Cc2ccc(C(F)(F)F)cc2)C(=O)N(C)CC(=O)N[C@@H](CCc2cc(F)c(C(F)(F)F)c(F)c2)C1=O [PP1141] | AA (a compound having 20 or more is denoted as AA) | A (a compound having 10 or more and less than 20 is denoted as A) |
| CCCCN1CC(=O)NC2(CCC2)C(=O)N(C)[C@@H](C2CCCC2)C(=O)N(C)[C@H](C(=O)N(C)C)CC(=O)N(C)[C@@H](CC)C(=O)N[C@@H]([C@@H](C)CC)C(=O)N(C)CC(=O)N(C)[C@H]2C/C=C\CCN(C2=O)[C@@H](Cc2ccc(C(F)(F)F)cc2)C(=O)N(C)CC(=O)N[C@@H](CCc2cc(F)c(C(F)(F)F)c(F)c2)C1=O [PP1142] | A (a compound having 10 or more and less than 20 is denoted as A) | A (a compound having 10 or more and less than 20 is denoted as A) |
| CC[C@H](C)[C@@H]1NC(=O)[C@H](CC)N(C)C(=O)C[C@@H](C(=O)N(C)C)N(C)C(=O)[C@H](C2CCCC2)N(C)C(=O)C2(CCC2)NC(=O)CN(CC)C(=O)[C@H](CCc2cc(F)c(C(F)(F)F)c(F)c2)NC(=O)CN(C)C(=O)[C@H](Cc2ccc(C(F)(F)F)cc2)N2CC/C=C\C[C@@H](C2=O)N(C)C(=O)CN(C)C1=O [PP1143] | A (a compound having 10 or more and less than 20 is denoted as A) | A (a compound having 10 or more and less than 20 is denoted as A) |
| CC[C@H](C)[C@@H]1NC(=O)[C@H](CC)N(C)C(=O)C[C@@H](C(=O)N(C)C)N(C)C(=O)[C@H](C2CCCC2)N(C)C(=O)C2(CCC2)NC(=O)[C@H](COC)N(C)C(=O)[C@H](CCc2cc(F)c(C(F)(F)F)c(F)c2)NC(=O)CN(C)C(=O)[C@H](Cc2ccc(C(F)(F)F)cc2)N2CC/C=C\C[C@@H](C2=O)N(C)C(=O)CN(C)C1=O [PP1145] | A (a compound having 10 or more and less than 20 is denoted as A) | B (a compound having 3 or more and less than 10 is denoted as B) |
| CC[C@H](C)[C@@H]1NC(=O)[C@H](CC)N(C)C(=O)C[C@@H](C(=O)N(C)C)N(C)C(=O)[C@H](C2CCCC2)N(C)C(=O)C2(CCC2)NC(=O)[C@H](C)N(C)C(=O)[C@H](CCc2cc(F)c(C(F)(F)F)c(F)c2)NC(=O)CN(C)C(=O)[C@H](Cc2ccc(C(F)(F)F)cc2)N2CC/C=C\C[C@@H](C2=O)N(C)C(=O)CN(C)C1=O [PP1146] | A (a compound having 10 or more and less than 20 is denoted as A) | B (a compound having 3 or more and less than 10 is denoted as B) |
| CC[C@H](C)[C@@H]1NC(=O)[C@H](CC)N(C)C(=O)C[C@@H](C(=O)N(C)C)N(C)C(=O)[C@H](C2CCCC2)N(C)C(=O)C2(CCC2)NC(=O)[C@H](COCCC(C)C)N(C)C(=O)[C@H](CCc2cc(F)c(C(F)(F)F)c(F)c2)NC(=O)CN(C)C(=O)[C@H](Cc2ccc(C(F)(F)F)cc2)N2CC/C=C\C[C@@H](C2=O)N(C)C(=O)CN(C)C1=O [PP1148] | A (a compound having 10 or more and less than 20 is denoted as A) | A (a compound having 10 or more and less than 20 is denoted as A) |
| CC[C@H](C)[C@@H]1NC(=O)[C@H](CC)N(C)C(=O)C[C@@H](C(=O)N(C)C)N(C)C(=O)[C@H](C2CCCC2)N(C)C(=O)C2(CCC2)NC(=O)[C@H](CC2CCCCC2)N(C)C(=O)[C@H](CCc2cc(F)c(C(F)(F)F)c(F)c2)NC(=O)CN(C)C(=O)[C@H](Cc2ccc(C(F)(F)F)cc2)N2CC/C=C\C[C@@H](C2=O)N(C)C(=O)CN(C)C1=O [PP1149] | A (a compound having 10 or more and less than 20 is denoted as A) | A (a compound having 10 or more and less than 20 is denoted as A) |
